The values below come from patent publication US20240083872A1, “CYCLIC AMINE DERIVATIVES HAVING SEROTONIN RECEPTOR BINDING ACTIVITY” (Shionogi & Co., Ltd., priority 2020, published 2024).

Like-named read-outs stand apart in the source and are kept apart here.

Series [1] deals with human recombinant 5-HT2A receptor (Homo sapiens (Human), UniProt P28223). The experiment in a line: 5-HT2A receptor binding inhibition test ([3H]-Ketanserin). Particulars: Jump-In HEK cell membrane. The gist of the method:
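HEK cell membranes expressing human recombinant receptor were incubated with [3H]-ketanserin near its Kd in Tris-HCl 50 mmol/L pH 7.4 buffer (0.1% BSA) for 1.5 h at 25° C, then filtered on GF/B. Non-specific binding was defined with […] serotonin; Ki came from dose-response curves.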

A short description of the next series: Metabolic stability test. In kind it is in vitro ADME. Particulars: human hepatic microsomes, 0.5 μmol/L, 30 minutes, 37° C., NADPH (oxidative reaction). Here is the method:
Test Example 6-2: Metabolic Stability Test
Using commercially available pooled human hepatic microsomes, a compound according to the present invention was reacted for a constant time, and a remaining rate was calculated by comparing a reacted sample and an unreacted sample, thereby, a degree of metabolism of the compound according to the present invention in liver was evaluated.
A reaction was performed (oxidative reaction) at 37° C. for 0 minutes or 30 minutes in the presence of 1 mmol/L NADPH in 0.2 mL of a buffer (50 mmol/L Tris-HCl pH 7.4, 150 mmol/L potassium chloride, 10 mmol/L magnesium chloride) containing 0.5 mg protein/mL of human hepatic microsomes. After the reaction, 70 μL of the reaction solution was added to 140 μL of a solution of methanol/acetonitrile=1/1 (v/v), mixed and centrifuged at 3000 rpm for 15 minutes. The compound according to the present invention in the supernatant was quantified by LC/MS/MS or Solid Phase Extraction (SPE)/MS, and a remaining rate of the compound according to the present invention after the reaction was calculated, letting a compound amount at 0 minute reaction time be 100%.

Series [2] deals with human recombinant 5-HT2C receptor (Homo sapiens (Human), UniProt P28335). The experiment in a line: 5-HT2C receptor binding inhibition test ([3H]-Mesulergine). Particulars: Jump-In HEK cell membrane, [3H]-Mesulergine.
human recombinant 5-HT2C receptor, sequence (P28335 33-458): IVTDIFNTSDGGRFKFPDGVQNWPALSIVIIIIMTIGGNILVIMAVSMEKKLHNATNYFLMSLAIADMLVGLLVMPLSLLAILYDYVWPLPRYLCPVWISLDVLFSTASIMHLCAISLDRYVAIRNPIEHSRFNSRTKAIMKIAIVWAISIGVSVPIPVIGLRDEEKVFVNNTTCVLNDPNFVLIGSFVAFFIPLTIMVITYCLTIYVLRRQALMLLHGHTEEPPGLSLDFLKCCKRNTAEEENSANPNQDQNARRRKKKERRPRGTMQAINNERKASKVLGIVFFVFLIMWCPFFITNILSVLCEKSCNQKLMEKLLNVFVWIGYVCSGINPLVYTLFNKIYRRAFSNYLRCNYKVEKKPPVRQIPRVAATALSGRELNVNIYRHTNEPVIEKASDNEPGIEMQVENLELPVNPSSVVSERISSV
Series [3] concerns the target human ether-a-go-go related gene (hERG) channel (Homo sapiens (Human), UniProt Q12809). The experiment in a line: hERG test (FluxOR potassium channel assay, FLIPR). Particulars: CHO cells expressing hERG channel, thallium flux fluorescence. In kind it is cell-based. Here is the method: Test Example 3-2: hERG Test
For the purpose of evaluating risk of an electrocardiogram QT interval prolongation of the compound of the present invention, effects of the compound were studied by evaluating the activity of potassium channel using CHO cells expressing human ether-a-go-go related gene (hERG) channel.
Evaluation was performed using a FluxORII Green Potassium IonCgannel Assay kit (Invitrogen: Molecular Probes).
Cells were seeded in a 384-assay plate (8000 cells/well/40 μL) and incubated (37° C., 5% CO2) overnight. After replacing the medium with a Wash buffer (1×HBSS, 20 mM HEPES) with a microplate washer, a fluorescent indicator was added to the medium and allowed to incubate (37° C., 5% CO2) for 1 hour for incorporation of the fluorescent indicator into cells.
A cell plate was placed on a cell-based kinetic assay system FLIPR (Molecular Devices, LLC.), and the compound was added to the cells so as to have a desired concentration and reacted for 10 minutes. When a mixed solution of potassium and thallium as a stimulator was added thereto, the potassium channel was opened, and thallium that flowed into the cells bound to the fluorescent indicator, so that the intracellular fluorescence signal increased, and the potassium channel current was detected as a fluorescence signal. […] Then, the inhibition rate was calculated from the signal intensity at each concentration. IC50 was calculated from the inhibition rate at each concentration.
In general terms: Block of hERG is tested as a sign of cardiac risk.

Setting [4] is: read-out: human serotonin 5-HT2A receptor binding activity, Ki value.
Setting [5] is: read-out: human serotonin 5-HT2C receptor binding inhibitory activity, Ki value.

One may read the Ki as the dissociation constant of the complex between target and ligand, obtained from inhibition or displacement. The term IC50 denotes the midpoint of a concentration-inhibition curve.

human recombinant 5-HT2A receptor, sequence (P28223 whole entry): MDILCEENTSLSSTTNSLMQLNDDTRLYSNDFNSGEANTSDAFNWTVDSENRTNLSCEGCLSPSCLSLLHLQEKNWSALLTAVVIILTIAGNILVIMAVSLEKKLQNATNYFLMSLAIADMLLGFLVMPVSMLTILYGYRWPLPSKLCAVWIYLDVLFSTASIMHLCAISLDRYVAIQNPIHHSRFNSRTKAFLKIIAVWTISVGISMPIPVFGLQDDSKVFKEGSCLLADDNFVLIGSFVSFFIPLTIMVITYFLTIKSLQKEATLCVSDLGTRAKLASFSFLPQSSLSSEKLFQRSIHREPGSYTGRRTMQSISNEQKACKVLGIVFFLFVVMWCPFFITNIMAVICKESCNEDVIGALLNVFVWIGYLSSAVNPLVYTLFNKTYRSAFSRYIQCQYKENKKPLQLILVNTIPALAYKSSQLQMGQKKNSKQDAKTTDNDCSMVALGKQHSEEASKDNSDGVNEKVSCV
human ether-a-go-go related gene (hERG) channel, sequence (Q12809 whole entry): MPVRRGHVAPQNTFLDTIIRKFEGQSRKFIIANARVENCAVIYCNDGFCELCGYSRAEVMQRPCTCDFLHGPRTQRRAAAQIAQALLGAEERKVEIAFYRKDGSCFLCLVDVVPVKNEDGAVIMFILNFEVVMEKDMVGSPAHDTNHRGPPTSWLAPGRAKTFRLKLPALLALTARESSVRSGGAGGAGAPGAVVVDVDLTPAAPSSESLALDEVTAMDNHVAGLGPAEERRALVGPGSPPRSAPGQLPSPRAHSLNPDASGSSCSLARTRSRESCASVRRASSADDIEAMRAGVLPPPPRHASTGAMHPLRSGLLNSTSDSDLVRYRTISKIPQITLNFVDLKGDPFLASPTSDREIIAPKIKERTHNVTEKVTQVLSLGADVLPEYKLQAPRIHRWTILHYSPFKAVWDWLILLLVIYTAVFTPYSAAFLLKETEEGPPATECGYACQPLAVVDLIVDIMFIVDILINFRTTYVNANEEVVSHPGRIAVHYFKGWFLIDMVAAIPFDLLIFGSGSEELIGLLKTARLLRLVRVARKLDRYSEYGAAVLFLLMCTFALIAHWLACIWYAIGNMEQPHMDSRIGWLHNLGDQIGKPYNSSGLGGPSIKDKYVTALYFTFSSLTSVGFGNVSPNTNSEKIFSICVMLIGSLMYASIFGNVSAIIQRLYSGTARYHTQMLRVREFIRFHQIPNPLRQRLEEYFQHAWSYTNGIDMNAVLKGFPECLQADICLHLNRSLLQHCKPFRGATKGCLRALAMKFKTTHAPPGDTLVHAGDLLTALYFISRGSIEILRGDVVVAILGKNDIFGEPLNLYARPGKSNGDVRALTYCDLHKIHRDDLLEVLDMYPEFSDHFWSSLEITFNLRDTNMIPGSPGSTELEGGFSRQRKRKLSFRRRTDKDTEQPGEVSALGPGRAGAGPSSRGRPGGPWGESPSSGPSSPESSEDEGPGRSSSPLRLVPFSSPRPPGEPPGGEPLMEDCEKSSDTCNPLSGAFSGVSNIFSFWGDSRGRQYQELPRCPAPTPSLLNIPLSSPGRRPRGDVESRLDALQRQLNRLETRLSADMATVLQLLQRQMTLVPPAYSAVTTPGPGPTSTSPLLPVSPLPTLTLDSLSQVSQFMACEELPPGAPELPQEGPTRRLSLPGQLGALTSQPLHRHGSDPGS

In the case of `CC(C)COc1ccc(CN(Cc2ccc(F)cn2)C(=O)NC2CCN(C)CC2)cc1` [Compound I-016], the Ki in series [1] (read-out: h-5-HT2A Ki) and in series [2] (read-out: h-5-HT2C Ki) was < 10 nM throughout. The “remaining rate of the compound” value in the series “Metabolic stability test” was 99.6%.

As for `CC(C)COc1ccc(CN(Cc2ccn(C)n2)C(=O)N[C@H]2CCNCC23CC3)cc1` [Compound I-028], the inhibitory constant (Ki) in series [1] (read-out: h-5-HT2A Ki) and in series [2] (read-out: h-5-HT2C Ki) was < 10 nM in each case. Further, the “remaining rate of the compound” value in the series “Metabolic stability test” is on record as 90.2%.

Regarding `CC(C)COc1ccc(CN(Cc2ccn(C)n2)C(=O)NC2CCN(C)CC2)cc1` [Compound I-043], the figures for the Ki in series [1] (setting [4]) and in series [2] (setting [5]) were 2.14 nM and 3.07 nM, respectively. In addition, the “remaining rate of the compound” value in “Metabolic stability test” was 85.0%.

Turning to `Cc1nc(CN(Cc2ccc(OCC(C)C)cc2)C(=O)NC2CCN(C)CC2)co1` [Compound I-077], the Ki in series [1] (read-out: h-5-HT2A Ki) and in series [2] (read-out: h-5-HT2C Ki) was < 10 nM each time. Besides, in “Metabolic stability test”, the “remaining rate of the compound” value was 85.3%.

With `Cc1nc(CN(Cc2ccc(OCC(C)C)cc2)C(=O)OC2CCN(C)CC2)co1` [Compound I-081], the Ki in series [1] (read-out: h-5-HT2A Ki) and in series [2] (read-out: h-5-HT2C Ki) was < 10 nM throughout. Besides, in series [3], the IC50 was > 52000 nM.

Turning to `CC(C)COc1ccc(CN(Cc2ccn(C)n2)C(=O)OC2CCN(C)CC2)cc1` [Compound I-082], the inhibition constant (Ki) in series [1] (read-out: h-5-HT2A Ki) and in series [2] (read-out: h-5-HT2C Ki) was 10 to 100 nM in each case. Further, the IC50 in series [3] was > 52000 nM.

For `Cc1cc(CN(Cc2ccc(OCC(C)C)cc2)C(=O)OC2CCN(C)CC2)nn1C` [Compound I-083], in series [1] (read-out: h-5-HT2A Ki), the Ki lay in the range of 10 to 100 nM. Besides, in series [3], the half-inhibitory concentration (IC50) is > 52000 nM.

In the case of `CC(C)COc1ccc(CN(Cc2cnn(C)n2)C(=O)OC2CCN(C)CC2)cc1` [Compound I-084], the inhibition constant Ki was determined as 2.61 nM in series [1] (setting [4]) and 5.78 nM in series [2] (setting [5]). For the same compound, in series [3], the IC50 was > 52000 nM.

For `CCCCOc1ccc(CN(Cc2coc(C)n2)C(=O)NC2CCN(C)CC2)cc1` [Compound I-086], the Ki stood at 0.503 nM in series [1] (setting [4]) and 0.241 nM in series [2] (setting [5]). The “remaining rate of the compound” value in “Metabolic stability test” is given as 75.5%.

Consider `Cc1nc(CN(Cc2ccc(OCC(F)(F)C(F)(F)F)cc2)C(=O)NC2CCN(C)CC2)co1` [Compound I-088], for which the inhibition constant Ki in series [1] (read-out: h-5-HT2A Ki) and in series [2] (read-out: h-5-HT2C Ki) was < 10 nM in each case. In addition, the “remaining rate of the compound” value in the series “Metabolic stability test” is 80.0%.

On to `CCCCOc1ccc(CN(Cc2coc(C)n2)C(=O)CC2CCN(C)CC2)cc1` [Compound I-099], for which the inhibition constant (Ki) in series [1] (read-out: h-5-HT2A Ki) and in series [2] (read-out: h-5-HT2C Ki) was < 10 nM throughout. Also, the IC50 in series [3] came to 46800 nM.

In the case of `CCCCOc1ccc(CN(Cc2cnn(C)n2)C(=O)NC2CCN(C)CC2)c(F)c1` [Compound I-102], the Ki in series [1] (setting [4]) worked out at 0.642 nM; in series [2] (setting [5]) it was 0.412 nM. Also, the “remaining rate of the compound” value in “Metabolic stability test” was 97.3%.

With `CN1CCC(NC(=O)N(Cc2ccc(OCC(F)(F)F)cc2)Cc2coc(C3CC3)n2)CC1` [Compound I-111], the Ki in series [1] (read-out: h-5-HT2A Ki) and in series [2] (read-out: h-5-HT2C Ki) was < 10 nM in each case.

For the compound `CN1CCC(NC(=O)N(Cc2coc(C3CC3)n2)Cc2ccc(OCC(F)(F)F)cc2F)CC1` [Compound I-112], the Ki in series [1] (read-out: h-5-HT2A Ki) and in series [2] (read-out: h-5-HT2C Ki) was < 10 nM in each case.

In the case of `CCCCOc1ccc(CN(Cc2coc(C)n2)C(=O)NC2CCN(C)CC2)c(F)c1` [Compound I-113], the inhibition constant (Ki) in series [1] (read-out: h-5-HT2A Ki) and in series [2] (read-out: h-5-HT2C Ki) was < 10 nM throughout.

Regarding `CCCc1ccc(CN(Cc2coc(C)n2)C(=O)NC2CCN(C)CC2)c(F)c1` [Compound I-114], the Ki in series [1] (read-out: h-5-HT2A Ki) and in series [2] (read-out: h-5-HT2C Ki) was < 10 nM in each case.

Turning to `Cc1nc(CN(Cc2ccc(OCC(C)C)c(F)c2)C(=O)NC2CCN(C)CC2)co1` [Compound I-115], the Ki in series [1] (read-out: h-5-HT2A Ki) and in series [2] (read-out: h-5-HT2C Ki) was < 10 nM each time.

For the compound `CC(C)COc1ccc(CN(Cc2cnn(C)n2)C(=O)NC2CCN(C)CC2)cc1F` [Compound I-116], the inhibition constant (Ki) in series [1] (read-out: h-5-HT2A Ki) and in series [2] (read-out: h-5-HT2C Ki) was < 10 nM in each case.

In the case of `Cc1nc(CN(Cc2ccc(OCC(C)C)cc2F)C(=O)NC2CCN(C)CC2)co1` [Compound I-117], the Ki stood at 0.82 nM in series [1] (setting [4]) and 0.315 nM in series [2] (setting [5]).

Regarding `CC(C)COc1ccc(CN(Cc2cnn(C)n2)C(=O)NC2CCN(C)CC2)c(F)c1` [Compound I-118], the inhibition constant (Ki) in series [1] (setting [4]) stood at 1.03 nM; in series [2] (setting [5]), 0.371 nM.

`CCCCOc1ccc(CN(Cc2coc(CF)n2)C(=O)NC2CCN(C)CC2)cc1` [Compound I-119]: the Ki in series [1] (read-out: h-5-HT2A Ki) and in series [2] (read-out: h-5-HT2C Ki) was < 10 nM throughout.

For `CC(C)COc1ccc(CN(Cc2coc(CF)n2)C(=O)NC2CCN(C)CC2)cc1` [Compound I-120], the Ki in series [1] (read-out: h-5-HT2A Ki) and in series [2] (read-out: h-5-HT2C Ki) was < 10 nM in each case.

Take `Cc1nc(CN(Cc2ccc(OCC(F)(F)C(F)(F)F)cc2F)C(=O)NC2CCN(C)CC2)co1` [Compound I-121]: the Ki in series [1] (read-out: h-5-HT2A Ki) and in series [2] (read-out: h-5-HT2C Ki) was < 10 nM in each case.

In the case of `CN1CCC(NC(=O)N(Cc2cnn(C)n2)Cc2ccc(OCC(F)(F)C(F)(F)F)cc2F)CC1` [Compound I-122], the inhibition constant (Ki) was determined as 0.824 nM in series [1] (setting [4]) and 0.281 nM in series [2] (setting [5]).

With `CCCCOc1ccc(CN(Cc2coc(C)n2)C(=O)CC2CCN(C)CC2)cc1F` [Compound I-123], the Ki in series [1] (setting [4]) is 0.506 nM; in series [2] (setting [5]), 1.39 nM.

In the case of `CCCCOc1ccc(CN(Cc2coc(C)n2)C(=O)CN2CCN(C)CC2)cc1F` [Compound I-126], the figures for the inhibitory constant (Ki) in series [1] (setting [4]) and in series [2] (setting [5]) were 1.24 nM and 6.25 nM, respectively.

In the case of `CCCCOc1ccc(CN(Cc2coc(C)n2)C(=O)CCC2CCNCC2)cc1F` [Compound I-127], the Ki lay in the range of 10 to 100 nM in series [1] (read-out: h-5-HT2A Ki) and 100 to 5000 nM in series [2] (read-out: h-5-HT2C Ki).
